Measurements as given in patent publication US20080146593A1, “Substituted 5-Phenyl Pyrimidines I In Therapy” (Basf Aktiengesellschaft, priority 2005, published 2008).

Test system: HeLa cells
Experiment: Measurement of the cell cycle inhibition in HeLa cells
Type: cell-based
Settings: HeLa B cells, 20 h incubation with compound; FACS ratio G0/G1 to G2/M vs DMSO; concentration at which 50% of cells are in cell cycle arrest
Procedure: Measurement of the Cell Cycle Inhibition in HeLa Cells—Test Procedure:
HeLa B cells are grown in DMEM (Life Technologies Cat No 21969-035) supplemented with 10% Fetal Calf Serum (FCS, Life Technologies Cat No 10270-106) in 180 cm^2 Flasks at 37° C., 92% humidity and 7% CO2.
Cells are seeded at 5×10^4 cells per well in a 24-well plate. Twenty hours later the compounds are added such that the final concentration is 1×10^−6, 3.3×10^−7, 1.1×10^−7, 3.7×10^−8, 1.2×10^−8 and 1×10^−9 M in a final volume of 500 μl. DMSO alone is added to 6 wells as a control. Cells are incubated with the compounds as above for 20 h. Then cells are observed under the microscope to check for cell death, and the 24-well plate is then centrifuged at 1200 rpm for 5 min at 20° C., acceleration position 7 and break position 5 (Eppendorf centrifuge 5804R).
The supernatant is removed and the cells lysed with 0.5 ml RNase Buffer (10 mM NaCitrate, 0.1% Nonidet NP40, 50 μg/ml RNase, 10 μg/ml Propidium iodide) per well. The plates are then incubated for at least 30 min in the dark at RT and the samples then transferred to FACS tubes. Samples are measured in a FACS machine (Beckton Dickinson) at the following settings:
Instrument Settings of the FACS Calibur:
The ratio of cells in G0/G1-phase to G2/M phase is calculated and compared to the value for the controls (DMSO) only. Results are given in table 2 as the IC50 value calculated from the concentration curve plotted against the cell cycle ratio and indicate the compound concentration at which 50% of cells are in cell cycle arrest after treatment with the compound.

SMILES	IC50 [nM]
Cc1nn(-c2nc(Cl)c(-c3c(F)cc(F)cc3F)c(N[C@@H](C)C(F)(F)F)n2)c(C)c1Cl [Example 3]	31
Cc1cnn(-c2nc(Cl)c(-c3c(F)cc(F)cc3F)c(NC(C)C)n2)c1 [Example 24]	50
CC(C)Nc1nc(-c2cnccn2)nc(Cl)c1-c1c(F)cccc1Cl [Example 25]	24
Cc1ccc(-c2c(Cl)nc(-n3cncn3)nc2N[C@@H](C)C(C)C)c(F)c1 [Example 100]	40
C[C@H](Nc1nc(-n2cccn2)nc(F)c1-c1c(F)cc(F)cc1F)C(F)(F)F [Example 167]	20
COc1ccc(-c2c(Cl)nc(C(N)=NO)nc2N[C@@H](C)C(C)C)c(Cl)c1 [Example 185]	30
C[C@H](Nc1nc(C(N)=NO)nc(Cl)c1-c1c(F)cccc1F)C(F)(F)F [Example 175]	18
COc1cc(F)c(-c2c(Cl)nc(-c3ccccn3)nc2NC(C)C)c(F)c1 [Example 62]	23
Fc1cc(F)c(-c2c(Cl)nc(-n3ccnn3)nc2NCC(F)(F)F)c(F)c1 [Example 212]	53
Cc1nc(C)n(-c2nc(Cl)c(-c3c(F)cc(F)cc3F)c(N3CCCC3C)n2)n1 (centres unmarked) [Example 77]	35
COc1cc(F)c(-c2c(Cl)nc(C(N)=O)nc2N2CCC(C)CC2)c(F)c1 [Example 188]	30
Cc1nc(-n2cncn2)nc(N2CCC(C)CC2)c1-c1c(F)cc(F)cc1F [Example 93]	39
CC1CCCN1c1nc(C(N)=NO)nc(Cl)c1-c1ccc(F)cc1Cl (centres unmarked) [Example 208]	56
CC1CCCCN1c1nc(-n2ccnn2)nc(Cl)c1-c1c(F)cccc1F (centres unmarked) [Example 126]	38
CCC(C)Nc1nc(-n2ccnn2)nc(Cl)c1-c1c(F)cccc1F (centres unmarked) [Example 114]	41
CCON=C(N)c1nc(Cl)c(-c2c(F)cc(F)cc2F)c(N[C@H](C)C(F)(F)F)n1 [Example 158]	44
C[C@H](Nc1nc(-n2cnc(SCc3ccccc3)n2)nc(Cl)c1-c1c(F)cc(F)cc1F)C(F)(F)F [Example 151]	8.3
Cc1cccc(-c2nc(Cl)c(-c3c(F)cc(F)cc3F)c(NC(C)C)n2)n1 [Example 11]	42
CON=C(N)c1nc(Cl)c(-c2c(F)cc(OC)cc2F)c(N2CCC(C)CC2)n1 [Example 197]	42
CON=C(N)c1nc(Cl)c(-c2c(F)cc(OC)cc2F)c(N[C@@H](C)C(C)C)n1 [Example 198]	15
COCC(C)Nc1nc(-n2ccc(N)n2)nc(Cl)c1-c1ccc(C)cc1F (centres unmarked) [Example 128]	38
C[C@H](Nc1nc(C(N)=NO)nc(Cl)c1-c1cc(F)ccc1Cl)C(F)(F)F [Example 220]	36
CCC(C)Nc1nc(-n2ccnn2)nc(Cl)c1-c1c(C)cccc1F (centres unmarked) [Example 111]	29
CC1CCN(c2nc(-n3ccnn3)nc(Cl)c2-c2c(F)cc(F)cc2F)CC1 [Example 29]	17
CC1CCN(c2nc(C(N)=NO)nc(Cl)c2-c2c(F)cccc2F)CC1 [Example 194]	21

SMILES	IC50 [nM]
CON=C(N)c1nc(Cl)c(-c2c(F)cccc2F)c(N[C@@H](C)C(F)(F)F)n1 [Example 213]	51
O=C1CCCN1c1nc(Cl)c(-c2c(F)cc(F)cc2F)c(NCC(F)(F)F)n1 [Example 210]	39
CC1CCCCN1c1nc(-n2ccc(N)n2)nc(Cl)c1-c1c(F)cccc1F (centres unmarked) [Example 127]	37
C[C@H](Nc1nc(-n2ccc(-c3ccccc3)n2)nc(Cl)c1-c1c(F)cc(F)cc1F)C(F)(F)F [Example 4]	41
CC1CCCCN1c1nc(-n2cccn2)nc(Cl)c1-c1c(F)cccc1F (centres unmarked) [Example 125]	38
C[C@H](Nc1nc(-n2cc(Cl)cn2)nc(Cl)c1-c1c(F)cc(F)cc1F)C(F)(F)F [Example 35]	36
Cc1ccc(-c2c(Cl)nc(-n3ccc(N)n3)nc2NCC(F)(F)F)c(F)c1 [Example 149]	41
CC1CCCN1c1nc(-n2cccn2)nc(Cl)c1-c1c(F)cccc1F (centres unmarked) [Example 140]	20
CC(C)Nc1nc(-n2cccn2)nc(Cl)c1-c1c(F)cc(F)cc1F [Example 101]	33
C=CCCN(C)c1nc(-n2cccn2)nc(Cl)c1-c1ccc(F)cc1Cl [Example 132]	46
Cc1ccc(-c2c(Cl)nc(-n3cccn3)nc2NCC(F)(F)F)c(F)c1 [Example 108]	16
CC(C)Nc1nc(-n2cc(Br)cn2)nc(Cl)c1-c1c(F)cccc1Cl [Example 19]	16
CC1CCCN(c2nc(-n3cncn3)nc(Cl)c2-c2c(F)cc(F)cc2F)C1 (centres unmarked) [Example 44]	18
CC(=O)NC(=O)c1nc(Cl)c(-c2c(F)cccc2F)c(N2CCC(C)CC2)n1 [Example 184]	51
Cc1nc(-n2ccnn2)nc(N2CCC(C)CC2)c1-c1c(F)cccc1Cl [Example 166]	42
CC1CCN(c2nc(-n3ccnn3)nc(Cl)c2-c2ccc(F)cc2Cl)CC1 [Example 119]	48
CCC(C)Nc1nc(-c2ccccn2)nc(Cl)c1-c1c(F)cc(OC)cc1F (centres unmarked) [Example 63]	22
CCC(C)Nc1nc(-n2ccnn2)nc(Cl)c1-c1c(F)cc(F)cc1F (centres unmarked) [Example 91]	20
C[C@H](Nc1nc(-n2ccc(C(F)(F)F)n2)nc(Cl)c1-c1c(F)cc(F)cc1F)C(F)(F)F [Example 6]	17
CC(C)[C@@H](C)Nc1nc(-n2cncn2)nc(Cl)c1-c1c(F)cc(F)cc1F [Example 60]	19
CCC(C)Nc1nc(-n2ccc(N)n2)nc(Cl)c1-c1c(C)cccc1F (centres unmarked) [Example 143]	32
CON=C(N)c1nc(Cl)c(-c2ccc(OC)cc2Cl)c(N[C@@H](C)C(F)(F)F)n1 [Example 216]	27
CON=C(N)c1nc(Cl)c(-c2cc(F)ccc2Cl)c(N[C@@H](C)C(F)(F)F)n1 [Example 221]	30
CCC(C)Nc1nc(-n2ccnn2)nc(Cl)c1-c1c(F)cccc1Cl (centres unmarked) [Example 107]	39
CC(C)Nc1nc(-n2cc(Br)cn2)nc(Cl)c1-c1c(F)cc(F)cc1F [Example 17]	45

SMILES	IC50 [nM]
CC1CCN(c2nc(-c3ccccn3)nc(Cl)c2-c2c(F)cccc2F)CC1 [Example 81]	34
CC(C)Nc1nc(-c2ccccn2)nc(Cl)c1-c1c(F)cc(F)cc1F [Example 2]	48
C[C@H](Nc1nc(-n2cc(C#N)c(N)n2)nc(Cl)c1-c1c(F)cccc1Cl)C(F)(F)F [Example 187]	39
C[C@H](Nc1nc(-n2cncn2)nc(Cl)c1-c1c(F)cc(F)cc1F)C(F)(F)F [Example 8]	13
CC(C)C(C)Nc1nc(-c2ccccn2)nc(Cl)c1-c1c(F)cccc1F (centres unmarked) [Example 84]	27
CC1CCN(c2nc(-n3cccn3)nc(Cl)c2-c2c(F)cccc2Cl)CC1 [Example 66]	37
Cc1cccc(-c2nc(Cl)c(-c3c(F)cc(F)cc3F)c(N[C@@H](C)C(F)(F)F)n2)n1 [Example 13]	16
CC(C)c1ccn(-c2nc(Cl)c(-c3c(F)cc(F)cc3F)c(N[C@@H](C)C(F)(F)F)n2)n1 [Example 5]	4.6
Fc1cc(F)c(-c2c(Cl)nc(-c3nccs3)nc2NC2CCCC2)c(F)c1 [Example 40]	23
CC(C)[C@H](C)Nc1nc(-c2nccs2)nc(Cl)c1-c1c(F)cccc1Cl [Example 136]	29
CCC(C)Nc1nc(-n2cc(I)cn2)nc(Cl)c1-c1c(C)cccc1F (centres unmarked) [Example 120]	25
CCC(C)Nc1nc(C(N)=NO)nc(Cl)c1-c1c(F)cc(F)cc1F (centres unmarked) [Example 146]	32
CCC(C)Nc1nc(-c2csc(C)n2)nc(Cl)c1-c1c(F)cc(F)cc1F (centres unmarked) [Example 71]	25
CC(C)Nc1nc(-n2ccc(C(F)(F)F)n2)nc(Cl)c1-c1c(F)cc(F)cc1F [Example 16]	46
CC1CCN(c2nc(-n3ccnn3)nc(Cl)c2-c2c(F)cccc2F)CC1 [Example 117]	19
NC(=NO)c1nc(Cl)c(-c2c(F)cc(F)cc2F)c(NCC(F)(F)F)n1 [Example 173]	18
Cc1ccc(-c2c(Cl)nc(-n3cccn3)nc2N2CCC(C)CC2)c(F)c1 [Example 87]	39
COc1cc(F)c(-c2c(Cl)nc(C(N)=NO)nc2N2CCC(C)CC2)c(F)c1 [Example 190]	26
C[C@H](Nc1nc(-c2cnccn2)nc(Cl)c1-c1c(F)cc(F)cc1F)C(F)(F)F [Example 27]	3.5
CC1CCN(c2nc(-c3ccccn3)nc(Cl)c2-c2c(F)cc(O)cc2F)CC1 [Example 73]	11
C[C@H](Nc1nc(-c2nccs2)nc(Cl)c1-c1c(F)cc(F)cc1F)C(F)(F)F [Example 129]	14
CON=C(N)c1nc(Cl)c(-c2c(F)cccc2Cl)c(N[C@@H](C)C(F)(F)F)n1 [Example 214]	18
COc1ccc(-c2c(Cl)nc(C(N)=O)nc2N[C@@H](C)C(C)C)c(Cl)c1 [Example 183]	53
COc1cc(F)c(-c2c(Cl)nc(C(N)=S)nc2N[C@@H](C)C(F)(F)F)c(F)c1 [Example 203]	47
